Assay results as given in patent publication US20220387405A1, “METHODS OF TREATMENT WITH N-((R)-1-(3-CHLOROPYRIDIN-2-YL)-2,2,2-TRIFLUOROETHYL)-2-((S)-2,6-DIOXOPIPERIDIN-3-YL)-1-OXOISOINDOLINE-5-CARBOXAMIDE” (CELGENE CORPORATION, priority 2021, published 2022).
Like-named read-outs stand apart in the source and are kept apart here.

Tests used:
[1] = tested on: Escherichia coli strain WP2 uvrA; assay: Bacterial reverse mutation test, Escherichia coli; type: cell-based
Experimental: Compound 1 was tested in Salmonella typhimurium strains (TA1535, TA1537, TA98, TA100) and Escherichia coli strain WP2 uvrA at a range of concentrations up to 5000 μg/plate (the standard limit concentration for this assay), in the presence and absence of a supplemented rat liver fraction (S9 mix), using the plate incorporation version of the bacterial reverse mutation test. Dimethyl sulfoxide (DMSO) was used as the solvent.
The mean revertant colony counts for the negative controls were within the laboratory historical control range. Bacteria were also incubated with standard positive controls, and the response of the various bacterial strains to these agents confirmed the sensitivity of the test system and the activity of the S9 mix. Therefore, the results from both the negative and positive controls confirmed the validity of the assay.
No substantial increases in revertant colony numbers were obtained with any of the tester strains, following exposure to Compound 1 at any concentration, in either the presence or absence of S9 mix. Therefore, Compound 1 was considered to be negative for the induction of mutagenicity in this in vitro assay.

[2] = Cardiovascular assessment (ECG, heart rate) in conscious cynomolgus monkeys; type: in vivo; settings: oral gavage, 0.03-0.3 mg/kg, Regimens 1 and 2, 1 hour postdose
Experimental: Cardiovascular assessments (electrocardiograms [ECGs] and heart rates) were conducted in conscious cynomolgus monkeys as part of the Good Laboratory Practice (GLP)-compliant repeat dose toxicity study. In this study, Compound 1 was administered by oral gavage to Cynomolgus monkeys (5/sex/group) in Groups 1-5 at doses of 0 (0.5% (w/v) Methylcellulose, 0.25% (v/v) Tween 80 in 50 mM citrate buffer pH 3), 0.03, 0.1, 0.1 and 0.3 mg/kg, respectively, intermittently using 2 different dosing regimens. Groups 2 and 3 animals were dosed for 7 consecutive days in each 4-week cycle for 2 cycles (Regimen 1: on Days 1-7 and 29-35), whereas Groups 4 and 5 animals were dosed twice weekly for 4 weeks (Regimen 2: on Days 1, 4, 8, 11, 15, 18, 22 and 25). A combination of both dosing regimens (Days 1-7, 8, 11, 15, 18, 22, 25, and 29-35) was used for administration of the vehicle to the control animals. […] Qualitative (visual inspection) and quantitative assessments including heart rates and PR, QRS, RR, QT, and QTc intervals were performed. QTc was calculated using Bazett's formula.

[3] = molecular target: T1, CYP2E1 (Homo sapiens, UniProt P05181); assay: CYP inhibition in human liver microsomes, CYP2E1; type: in vitro ADME
T1 construct: In human liver microsomes; from tissue; host or cells: human liver microsomes

[4] = tested on: blasts in TP53 WT AML samples; assay: 5-day liquid culture of AML patient BM cells; type: cell-based, human
[5] = tested on: CD34+ cells from BM samples of healthy donors; assay: Liquid culture of CD34+ cells from healthy donors (FACS); type: cell-based, human
Experimental: CD34^+ cells isolated from BM samples of 3 TP53 WT AML donors and 3 healthy donors were treated with increasing concentrations of Compound 1 in liquid culture at times ranging from 4 hours to 5 days. […] Acute myeloid leukemia blasts sustained CK1α degradation up to 5 days in culture as assessed by fluorescence-activated cell sorting (FACS) analysis. Strikingly, p53 stabilization was sustained longer in leukemic cells (up to 48 hours) compared with normal BM cells (for 24 hours).

[6] = molecular target: T2, CYP1A2 (Homo sapiens, UniProt P05177); assay: CYP inhibition in human liver microsomes, CYP1A2; type: in vitro ADME
T2 construct: In human liver microsomes; from tissue; host or cells: human liver microsomes

[7] = tested on: Normal T lymphocytes in BM samples; assay: PharmaFlow test, normal T lymphocytes in AML patient BM samples; type: cell-based, human; settings: BM samples of AML patients; for Compound 1 all but 1 patient
[8] = tested on: CYP3A4/5; assay: Enzymatic metabolism (enzyme identification); type: in vitro ADME
Source text: Compound 1 underwent non-enzymatic hydrolysis, oxidation, N-dealkylation, glucuronidation and a combination of these pathways in hepatocytes of human and animal species. Although there were quantitative differences in the formation of Compound 1 metabolites across species, qualitatively all metabolites formed in human hepatocytes were also observed in hepatocytes and plasma of rats and/or monkeys, the two species used for nonclinical safety testing. Following multiple oral administrations of Compound 1 to rats and monkeys, Compound 1 was the predominant component in plasma of both species. The metabolites observed in plasma were similar to those observed in hepatocytes.

[9] = Dose toxicity and toxicokinetics study in rats; type: in vivo; settings: for AUC / Cmax: both sexes; for AUC / Cmax / NOAEL: rat, in vivo, po; for NOAEL: female, oral gavage, read-out: NOAEL (females)
Experimental: Additionally, control animals were dosed with a vehicle using a combination of both dosing regimens. Recovery of test article-related effects was evaluated during a 4-week recovery period.
Animals in Regimen 1 were dosed for 7 consecutive days in each 4-week cycle for 2 cycles (0.3 or 3 mg/kg on Days 1-7 and 29-35), whereas animals in Regimen 2 were dosed twice weekly for 4 weeks (0.5 or 5 mg/kg on Days 1, 4, 8, 11, 15, 18, 22 and 25). End of dosing necropsy was performed on the day after the last dose administration. A 4-week recovery period was included to assess reversibility of findings.

[10] = tested on: leukemic progenitors from BM samples of AML patients; assay: Colony forming assay (CFU-GM) with BM samples of AML patients; type: cell-based, human; settings: TP53 WT AML samples (14 of 18), compared to vehicle control
Experimental: Ex vivo activity of Compound 1 was evaluated in normal and leukemic progenitors from BM samples of 25 AML patients using colony forming assays. […] The effect of Compound 1 on CK1α degradation, p53 accumulation, and activation is concentration- and time-dependent.

[11] = molecular target: T3, CYP2C9 (Homo sapiens, UniProt P11712); assay: CYP inhibition in human liver microsomes, CYP2C9; type: in vitro ADME
T3 construct: In human liver microsomes; from tissue; host or cells: human liver microsomes

[12] = 0.3 mg/kg, Regimen 1, sexes combined
[13] = 0.5 mg/kg, Regimen 2, sexes combined

T3 sequence (P11712 whole entry): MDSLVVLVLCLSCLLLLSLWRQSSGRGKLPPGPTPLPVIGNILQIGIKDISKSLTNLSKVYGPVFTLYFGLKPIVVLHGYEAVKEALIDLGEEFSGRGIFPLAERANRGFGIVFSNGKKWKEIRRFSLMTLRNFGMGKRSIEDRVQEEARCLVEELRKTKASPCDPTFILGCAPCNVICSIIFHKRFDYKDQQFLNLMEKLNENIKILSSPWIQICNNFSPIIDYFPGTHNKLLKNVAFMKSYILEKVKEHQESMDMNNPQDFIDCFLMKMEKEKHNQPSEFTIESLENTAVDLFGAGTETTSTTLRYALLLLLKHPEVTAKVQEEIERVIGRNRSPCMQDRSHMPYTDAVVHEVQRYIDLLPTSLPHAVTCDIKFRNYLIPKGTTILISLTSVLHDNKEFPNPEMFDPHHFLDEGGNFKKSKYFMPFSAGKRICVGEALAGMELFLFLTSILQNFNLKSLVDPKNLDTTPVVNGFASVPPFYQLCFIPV
T1 sequence (P05181 whole entry): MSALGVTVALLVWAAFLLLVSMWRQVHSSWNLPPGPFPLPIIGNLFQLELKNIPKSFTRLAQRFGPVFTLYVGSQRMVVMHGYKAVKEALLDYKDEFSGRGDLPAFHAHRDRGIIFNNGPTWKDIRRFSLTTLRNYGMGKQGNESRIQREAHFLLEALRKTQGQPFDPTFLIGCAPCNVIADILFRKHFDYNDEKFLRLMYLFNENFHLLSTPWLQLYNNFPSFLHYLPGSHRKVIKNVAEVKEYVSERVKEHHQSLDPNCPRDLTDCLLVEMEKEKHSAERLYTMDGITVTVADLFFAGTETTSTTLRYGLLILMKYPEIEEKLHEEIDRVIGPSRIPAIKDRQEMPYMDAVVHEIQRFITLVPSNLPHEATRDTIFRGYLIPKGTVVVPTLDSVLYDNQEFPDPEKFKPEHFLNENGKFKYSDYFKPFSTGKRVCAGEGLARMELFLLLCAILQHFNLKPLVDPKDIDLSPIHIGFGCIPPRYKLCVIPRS
T2 sequence (P05177 whole entry): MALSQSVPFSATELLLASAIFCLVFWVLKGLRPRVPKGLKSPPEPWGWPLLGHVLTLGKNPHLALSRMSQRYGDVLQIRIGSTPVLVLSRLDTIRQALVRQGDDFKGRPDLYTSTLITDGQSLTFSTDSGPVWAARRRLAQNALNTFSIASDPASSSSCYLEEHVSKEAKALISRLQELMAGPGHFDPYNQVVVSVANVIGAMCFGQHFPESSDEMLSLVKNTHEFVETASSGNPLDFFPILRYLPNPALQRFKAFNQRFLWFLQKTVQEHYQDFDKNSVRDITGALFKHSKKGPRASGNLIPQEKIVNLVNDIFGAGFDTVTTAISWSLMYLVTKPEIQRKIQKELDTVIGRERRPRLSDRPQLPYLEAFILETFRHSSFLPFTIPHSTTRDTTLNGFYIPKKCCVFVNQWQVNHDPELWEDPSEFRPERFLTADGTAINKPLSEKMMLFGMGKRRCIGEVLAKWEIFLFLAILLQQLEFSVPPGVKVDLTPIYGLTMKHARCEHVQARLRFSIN

For `O=C1CC[C@H](N2Cc3cc(C(=O)N[C@H](c4ncccc4Cl)C(F)(F)F)ccc3C2=O)C(=O)N1` [Compound 1, N-((R)-1-(3-chloropyridin-2-yl)-2,2,2-trifluoroethyl)-2-((S)-2,6-dioxopiperidin-3-yl)-1-oxoisoindoline-5-carboxamide], the “toxicity to the bacteria” value ([1]; highest concentrations tested) was “non-toxic”, the “induction of mutagenicity (revertant colony numbers)” value ([1]; up to 5000 μg/plate, presence and absence of S9 mix) was “negative” and the “effects on heart rate, PR, QRS, QT, and QTc intervals” value [2] was “no Compound 1 related effects”. For the same compound, the time-dependent inhibition ([3]; CYP2E1, 30-minute preincubation with NADPH) was “not a time-dependent inhibition”, the inhibitory effect ([3]; human liver microsomes, CYP2E1) was no more than 25% and the total blast numbers ([4]; 5 days in liquid culture, all TP53 WT AML samples tested, vs vehicle control) was “deeply decreased”. For the same compound, the IC50 ([4]; liquid culture, apoptosis and cell cycle arrest, all samples) was “nanomolar range”, the “duration of sustained p53 stabilization” value ([5]; normal BM cells) was 24 h and the cellular outcome ([5]; normal cells) was “Cycle arrest”. The time-dependent inhibition ([6]; CYP1A2, 30-minute preincubation with NADPH) was “not a time-dependent inhibition”, the inhibitory effect ([6]; human liver microsomes, CYP1A2) was no more than 25% and the “cytotoxicity in T lymphocytes” value [7] was “noticeably more resistant”. The enzymatic metabolism [8] was “primarily mediated by CYP3A4/5”, the “severely toxic dose in 10% of the animals (STD 10)” value ([9]; Regimen 1) was 0.3 mg/kg and the “severely toxic dose in 10% of the animals (STD 10)” value ([9]; Regimen 2) was 0.5 mg/kg. For the same compound, the “NOAEL (males)” value ([9]; both regimens) was “not identified”, the AUC [9, 12] was 761 ng·h/mL and the Cmax [9, 12] was 225 ng/mL. It also gave an AUC [9, 13] of 1200 ng·h/mL, a Cmax [9, 13] of 263 ng/mL and an NOAEL ([9]; Regimen 1 (Days 1-7 and 29-35)) of 0.3 mg/kg. For the same compound, the NOAEL ([9]; Regimen 2 (twice weekly for 4 weeks)) was 0.5 mg/kg, the “samples with inhibited formation of CFU-GM colonies” value [10] was 77.8% and the time-dependent inhibition ([11]; CYP2C9, 30-minute preincubation with NADPH) was “not a time-dependent inhibition”. The IC50 ([11]; human liver microsomes, CYP2C9) was greater than 30 µM.
